The data set relates to liver cancer patient-derived cancer fragments (HCC cube) confirmed to express TM4SF5. The data set can be described thus: TM4SF5-expressing HCC-PDX (patient-derived tissue xenograft) model. It is filed as in vivo, NOD/SCID mice. To be noted: for body weight: 5 mg/kg IP twice a week (FIG. 21c); for tumor volume: vs vehicle (FIG. 21c); for PD-L1 expression / SLAMF7 staining / expression of TM4SF5: immunohistochemistry (FIG. 21e); for expressions of Ki67, AFP, F4/80, CCL2 and CCL5, and laminin γ2: immunohistochemistry (FIG. 21d); for cancer formation: immunohistochemistry or H&E staining (FIG. 21d). The method, then:
The experiment was conducted by obtaining patient-derived liver cancer segments (P0; HCC cube, 1 mm^3) confirmed to express TM4SF5 from Seoul National University Hospital, which passed the normal IRB approval process (H-2102-059-1195). The hair from the right thigh to the flank of 6-week-old male NOD/SCID mice was removed, and the mice were anesthetized by inhalation with […] isoflurane. Thereafter, a cancer segment was implanted into the right […] of the mice. When the cancer segments were engrafted and grew beyond a certain size at 4 to 5 weeks after implanting the tissue, the animals were sacrificed to obtain cancer segments (P1). The cancer segments were cut into a size of 1 mm^3 and placed in cryotubes with Recovery-Cell Culture Freezing Medium (Gibco) and stored in a […] liquid nitrogen tank. After obtaining P2 and P3 cancer segments in the same manner as above, one P3 cancer segment (1 mm^3) was implanted per 6-week-old male NOD/SCID mouse to establish the HCC-PDX mouse model used in this experiment. From the 8th day after implanting the cancer segments, vehicle, drug ST-5-001, or ST-5-002 was intraperitoneally injected at 5 mg/kg twice a week for a total of 6 times. On the 28th day after implanting the cancer tissue, the animals were sacrificed, and liver cancer tissues were obtained and used for analysis.
(a-d) A TM4SF5-expressing HCC-PDX model was established by implanting liver cancer patient-derived cancer fragments (HCC cube, 1 mm^3), confirmed to express TM4SF5, into the right thigh of 6-week-old male NOD/SCID mice (n=8) deficient in T, B, and NK immune cells. Starting from the 8th day after the tissue implantation, vehicle, drug ST-5-001, or ST-5-002 was intraperitoneally injected at 5 mg/kg twice a week on the indicated dates (a). After 6 injections, the animals were sacrificed on the 28th day after the cancer tissue implantation, liver tissues were obtained, and images of the livers were taken (b). From the 8th day after the implantation, body weight and tumor volume were measured and recorded on each drug injection day (c). Meanwhile, for a portion of the liver tissues, the expression level, distribution, and localization of each factor, as well as the degree of damage to the liver cancer tissue, were confirmed through immunohistochemistry or H&E staining for the given protein factors (d).

On to `CC(=O)Nc1ccc(-c2cc(-c3ccc(O)cc3)no2)cc1` [ST-5-001, N-(4-(3-(4-hydroxyphenyl)isoxazole-5-yl)phenyl)acetamide], for which the body weight result is “not affected”, the PD-L1 expression result is on record as “decrease”, the SLAMF7 staining result is “infiltrating into the cancer site” and the “expression of TM4SF5” value is reported as “not significantly different”. Moreover, the “expressions of Ki67, AFP, F4/80, CCL2 and CCL5, and laminin γ2” value was “significantly inhibited and lowered”; the cancer formation result is given as “inhibited”. For the same compound, where the note is “5 mg/kg IP twice a week”, the tumor volume entry is “significantly reduced”.
`Cc1ccc(C(=O)Nc2ccc(-c3cc(-c4ccc(O)cc4)no3)cc2)cc1` [ST-5-002, N-(4-(3-(4-hydroxyphenyl)isoxazole-5-yl)phenyl)-4-methylbenzamide]: the body weight entry is given as “not affected”, the PD-L1 expression entry was “decrease”, the SLAMF7 staining entry is recorded as “infiltrating into the cancer site” and the “expression of TM4SF5” value is reported as “not significantly different”. In addition, the “expressions of Ki67, AFP, F4/80, CCL2 and CCL5, and laminin γ2” value was “significantly inhibited and lowered”; the cancer formation entry is “inhibited”. Further, where the note is “5 mg/kg IP twice a week, 6 times, images (FIG. 21b)”, the “inhibitory effect on liver cancer formation” value is given as “distinct”. The tumor volume result (5 mg/kg IP twice a week) is “significantly reduced”.

The values are drawn from patent EP4772500A1, “NOVEL ISOXAZOLE COMPOUND AS TM4SF5-SPECIFIC INHIBITOR AND USE THEREOF” (Seoul National University R&DB Foundation, priority 2023, dated 2025).
